The source of these data is ChEMBL document CHEMBL1123001, “Ibotenic acid analogues. Synthesis, molecular flexibility, and in vitro activity of agonists and antagonists at central glutamic acid receptors” (J Med Chem, 1985).

Calls of active or inactive are those of the source. The calls are words filed in the database; no cut-off is given here.

The term IC50 denotes the concentration at which inhibition is half-maximal. Low readings indicate higher potency, high ones lower potency.

For assay [1], the species on record is Rattus norvegicus. Kind of assay: Inhibition of [3H]AMPA binding in rat brain membrane was evaluated. The class given is functional.
The nature of assay [2]: NMDA Antagonist activity was evaluated; na means no activity. The class given is functional.
A short description of assay [3]: Antagonist activity was evaluated by NMDA-induced excitations of feline spinal neuron; activity is seen. The assay is classed as functional. The note with it: filed as antagonist.
Assay [4] is described as follows: Antagonist activity was evaluated by NMDA-induced excitations of feline spinal neuron; no activity. The class given is functional.
The species named for assay [5] is Rattus norvegicus. As to the kind of experiment: GDEE-sensitive neuronal excitant (Relative potency) was evaluated; +++. The assay is classed as functional, organism-based.
A short description of assay [6]: NMDA Antagonist activity was evaluated; na means no activity; na means no activity. The class given is functional.

In turn, `N[C@@H](CCC(=O)O)C(=O)O` [GLUTAMIC ACID] gave an IC50 in the assay listed under Rattus norvegicus [1] of 1.3 µM. In assay [2], the Antagonist activity entry is “inactive”.
`NC(Cc1c(O)noc1CBr)C(=O)O` (centres undefined): the IC50 in the assay listed under Rattus norvegicus [1] came to 0.6 µM. Besides, the Antagonist activity result in assay [2] was “inactive”.
As to `NC(CCCc1cc(O)no1)C(=O)O` (centres undefined), in assay [3], the Antagonist activity entry is “Antagonist”. Further, in the assay listed under Rattus norvegicus [1], the IC50 was over 100 µM.
On to `Cc1onc(O)c1C[C@@H](N)C(=O)O`, for which the IC50 in the assay filed under Rattus norvegicus [1] was found to be 4.8 µM. Further, the Antagonist activity entry in assay [2] is “inactive”.
The molecule `Cc1onc(O)c1C[C@H](N)C(=O)O` [(S)-AMPA] returned an IC50 in the assay listed under Rattus norvegicus [1] of 0.6 µM. Moreover, the Antagonist activity result in assay [2] was “inactive”.
Consider `CC(C)(C)c1onc(O)c1CC(N)C(=O)O` (centres undefined), for which the Antagonist activity entry in assay [4] is “inactive”. Besides, the IC50 in the assay filed under Rattus norvegicus [1] came out at 10.6 µM.
On to `Cc1onc(O)c1CC(N)C(=O)O` (racemic) [(R,S)-AMPA], for which, in the assay filed under Rattus norvegicus [5], the Relative potency entry was “Active”. Also, the IC50 in the assay filed under Rattus norvegicus [1] stood at 0.8 µM. Further, the Antagonist activity entry in assay [6] is “inactive”.
In the case of `Cc1c(O)noc1C(C)C(N)C(=O)O` (centres undefined), in the assay listed under Rattus norvegicus [1], the IC50 is over 100 µM. Also, the Antagonist activity entry in assay [2] was “inactive”.
Take `NC(CCc1cc(O)no1)C(=O)O` (centres undefined): in assay [3], the Antagonist activity result was “Antagonist”. In addition, the IC50 in the assay listed under Rattus norvegicus [1] came out at 64 µM.
